# According to patent US9096593B2, “Compounds and methods for kinase modulation, and indications therefor” (Plexxikon Inc., priority 2009, dated 2015):
# Tested on: MV-4-11 cells
# Assay: MV-4-11 cell proliferation assay (ATPlite)
# Conditions: 3 days, read-out: Cell based (IC50 μM) MV-4-11 (Flt-3)
# Method: Compounds are assessed in a variety of cell based assays. For example BCR-FMS/BaF3, BCR-KIT/BaF3, M-NFS-60, M-07e, and BAC1.2F5 cell proliferation assays are used to assess inhibitory activity of Fms or Kit and MV-4-11 cell proliferation assay is used to assess inhibitory activity in Flt-3. Reagent and assay conditions are as follows: • BCR-FMS/BaF3 and BCR-KIT/BaF3 cells: • Maintained in RPMI containing 10% FBS, 1% PenStrep, 1% NEAA, and 1% L-Glutamine, supplemented with 1 mg/mL G418 and 5% WEHI-CM (or recombinant murine IL-3). • Confluent cells are split 1:50 to 1:100 every 3-4 days. • M-NFS-60 cells (ATCC #CRL-1838): • Maintained in RPMI containing 10% FBS, 1% Hepes, 1% NaPyruvate, and 0.45% Glucose, supplemented with 62 ng/mL murine M-CSF. • Confluent cells are split 1:20 every 3-4 days. • M-07e cells (DSMZ #ACC 104): • Maintained in IMDM containing 10% FBS, supplemented with either 200 ng/mL human SCF or […] SCF (R&D Systems 255-SC). • Confluent cells are split 1:5 to 1:10 every 3-4 days. • BAC1.2F5 cells: • Maintained in Alpha-MEM containing 10% Newborn Calf Serum (Invitrogen #26010-074) supplemented with 36 ng/mL murine M-CSF. • Confluent cells are split 1:4 every 3-4 days. • MV-4-11 cells: • Maintained in Iscove's Modified Dulbecco's Medium containing 10% FBS. • Confluent cells are split 1:4 every 3-4 days. On day 1, cells are counted, then centrifuged in a conical tube for 5 minutes at 1000 rpm. The supernatant is removed and cells are re-suspended as follows: • BCR-FMS/BaF3 and BCR-KIT/BaF3: resuspend in growth media+1 mg/mL G418 (without WEHI/IL-3) to 2×10^5 cells/mL. • M-NFS-60: resuspend in growth media +62 ng/mL murine M-CSF to 5×10^5 cells/mL. • M-07e: resuspend in growth media +200 ng/mL human SCF to 5×10^5 cells/mL. • BAC1.2F5: resuspend in growth media +36 ng/mL murine M-CSF to 1.4×10^5 cells/mL. • MV-4-11: resuspend in growth media +10% FBS to 5×10^5 cells/mL. The cells are plated (50 μL) in each well of a 96-well dish (Corning 3610) and incubated at 37° C. in 5% CO2 overnight, cells plated to a final concentration of cells as follows: • BCR-FMS/BaF3 and BCR-KIT/BaF3: 10,000 cells per well. • M-NFS-60: 25,000 cells per well. • M-07e: 25,000 cells per well. • BAC1.2F5: 7,000 cells per well. • MV-4-11: 25,000 cells per well. On day 2, compound at a maximum concentration of 5 mM is serially diluted 1:3 for a total of 8 point titration with DMSO as a control. A 1 μL aliquot of each dilution point is added to 249 μL growth media and 50 μL is added to a well containing cells, providing 10 μM compound for the maximum concentration point. The cells are incubated for 3 days at 37° C. in 5% CO2. On day 5, ATPlite 1 step Luminescence Assay System (Perkin Elmer #6016739) is brought to room temperature along with the cell cultures. ATPlite is added to each well as follows: • BCR-FMS/BaF3 and BCR-KIT/BaF3: 25 μL per well. • M-NFS-60: 25 μL per well. • M-07c: 40 μL per well. • BAC1.2F5: 50 μL per well. • MV-4-11: 40 μL per well. The cells are incubated at room temperature for 10 minutes, then luminescence is read on Safire reader. The measured luminescence correlates directly with cell number, such that the reading as a function of compound concentration is used to determine the IC50 value.
row,Structure (SMILES),IC50 [µM]
1,Clc1cnc2[nH]cc(Cc3ccc(NCc4ccc(Cl)nc4)nc3)c2c1 [Compound P-2003],> 0.1

# Same assay, conditions: Homo sapiens, MV4-11, 72 h, 3 days, read-out: Cell based (IC50 μM) MV-4-11 (Flt-3)
row,Structure (SMILES),IC50 [µM]
1,"Fc1nc(NCc2ccc(Cl)cn2)ccc1Cc1c[nH]c2ncccc12 [Compound P-2044, (5-Chloro-pyridin-2-ylmethyl)-[6-fluoro-5-(1H-pyrrolo[2,3-b]pyridin-3-ylmethyl)-pyridin-2-yl]-amine]",< 0.1
2,"COc1cnc2[nH]cc(Cc3ccc(NCc4ccc(OC)nc4)nc3F)c2c1 [Compound P-2030, [6-Fluoro-5-(5-methoxy-1H-pyrrolo[2,3-b]pyridin-3-ylmethyl)-pyridin-2-yl]-(6-methoxy-pyridin-3-ylmethyl)-amine]",< 0.1
3,"COc1ccc(CNc2ncc(Cc3c[nH]c4ncc(Cl)cc34)cn2)cn1 [Compound P-2038, [5-(5-Chloro-1H-pyrrolo[2,3-b]pyridin-3-ylmethyl)-pyrimidin-2-yl]-(6-methoxy-pyridin-3-ylmethyl)-amine]",< 0.1
4,"COc1ccc(CNc2ncc(Cc3c[nH]c4ncc(C)cc34)cn2)cn1 [Compound P-2057, (6-Methoxy-pyridin-3-ylmethyl)-[5-(5-methyl-1H-pyrrolo[2,3-b]pyridin-3-ylmethyl)-pyrimidin-2-yl]-amine]",< 0.1
5,"COc1ncc(CNc2ccc(Cc3c[nH]c4ncc(Cl)cc34)c(F)n2)cc1F [Compound P-2165, [5-(5-Chloro-1H-pyrrolo[2,3-b]pyridin-3-ylmethyl)-6-fluoro-pyridin-2-yl]-(5-fluoro-6-methoxy-pyridin-3-ylmethyl)-amine]",> 0.1
6,"COc1ccc(CNc2ccc(Cc3c[nH]c4ncc(C)cc34)c(F)n2)cn1 [Compound P-2029, [6-Fluoro-5-(5-methyl-1H-pyrrolo[2,3-b]pyridin-3-ylmethyl)-pyridin-2-yl]-(6-methoxy-pyridin-3-ylmethyl)-amine]",< 0.1
7,"COc1cnc2[nH]cc(Cc3ccc(NCc4ccc(Cl)cc4)nc3F)c2c1 [Compound P-2032, (4-Chloro-benzyl)-[6-fluoro-5-(5-methoxy-1H-pyrrolo[2,3-b]pyridin-3-ylmethyl)-pyridin-2-yl]-amine]",< 0.1
8,"Cc1cnc2[nH]cc(Cc3ccc(NCc4ccc(C(F)(F)F)nc4)nc3F)c2c1 [Compound P-2031, [6-Fluoro-5-(5-methyl-1H-pyrrolo[2,3-b]pyridin-3-ylmethyl)-pyridin-2-yl]-(6-trifluoromethyl-pyridin-3-ylmethyl)-amine]",< 0.1
9,"COc1ccnc2[nH]cc(Cc3ccc(NCc4ccc(Cl)cc4)nc3F)c12 [Compound P-2037, (4-Chloro-benzyl)-[6-fluoro-5-(4-methoxy-1H-pyrrolo[2,3-b]pyridin-3-ylmethyl)-pyridin-2-yl]-amine]",> 0.1
10,"COc1cnc2[nH]cc(Cc3ccc(NCc4ccccc4Cl)nc3F)c2c1 [Compound P-2034, (2-chloro-benzyl)-[6-fluoro-5-(5-methoxy-1H-pyrrolo[2,3-b]pyridin-3-ylmethyl)-pyridin-2-yl]-amine]",> 0.1
